{"source": "ChEMBL document CHEMBL1127133", "about": "“Substituted 6-alkyloxapenems: potent -lactamase inhibitors: synthesis and biological characterization” (Bioorg Med Chem Lett, 1993)", "assay": "T1/2 (phosphate buffer pH 7.0 @ 28 degree C)", "format": "ADME"}
{"smiles": "CC(C)(C)OC(=O)[C@H](O)[C@H]1C(=O)N2C(C(=O)[O-])=C(C(C)(C)C)O[C@H]12.[Na+]", "values": [{"measurement": "half-life", "value": 10.7, "unit": "h"}]}
{"smiles": "CC(C)(C)C1=C(C(=O)[O-])N2C(=O)[C@H]([C@H](O)CCc3ccc(O)cc3)[C@H]2O1.[Na+]", "values": [{"measurement": "half-life", "value": 24.6, "unit": "h"}]}
{"smiles": "CC(=O)NC[C@H]1C(=O)N2C(C(=O)[O-])=C(C(C)(C)C)O[C@H]12.[Na+]", "values": [{"measurement": "half-life", "value": "< 3", "unit": "h"}]}
{"smiles": "CC(C)(C)C1=C(C(=O)[O-])N2C(=O)[C@H](CNC(=O)CNC(=O)Cc3ccccc3)[C@H]2O1.[Na+]", "values": [{"measurement": "half-life", "value": 6.6, "unit": "h"}]}
{"smiles": "CC(C)(C)C1=C(C(=O)[O-])N2C(=O)[C@H]([C@H](O)c3ccncc3)[C@H]2O1.[Na+]", "values": [{"measurement": "half-life", "value": 6.4, "unit": "h"}]}
{"smiles": "CC(C)(C)C1=C(C(=O)[O-])N2C(=O)[C@H]([C@@H](O)c3ccccc3)[C@@H]2O1.[Na+]", "values": [{"measurement": "half-life", "value": 2.2, "unit": "h"}]}
{"smiles": "CC(C)(C)C1=C(C(=O)[O-])N2C(=O)[C@H](CNS(C)(=O)=O)[C@H]2O1.[Na+]", "values": [{"measurement": "half-life", "value": 2.2, "unit": "h"}]}
{"smiles": "CC(C)(C)C1=C(C(=O)[O-])N2C(=O)[C@H]([C@@H](O)CCc3ccncc3)[C@H]2O1.[Na+]", "values": [{"measurement": "half-life", "value": 15.8, "unit": "h"}]}
{"smiles": "C[C@@H](F)[C@H]1C(=O)N2C(C(=O)[O-])=C(C(C)(C)C)O[C@H]12.[Na+]", "values": [{"measurement": "half-life", "value": 3.5, "unit": "h"}]}
{"smiles": "CC(C)(C)C1=C(C(=O)[O-])N2C(=O)[C@H]([C@H](O)CCc3ccncc3)[C@H]2O1.[Na+]", "values": [{"measurement": "half-life", "value": 13.7, "unit": "h"}]}
{"smiles": "CC(C)(C)C1=C(C(=O)[O-])N2C(=O)[C@H]([C@@H](O)c3ccc(O)cc3)[C@H]2O1.[Na+]", "values": [{"measurement": "half-life", "value": 10.3, "unit": "h"}]}
{"smiles": "CC(C)(C)C1=C(C(=O)[O-])N2C(=O)[C@H](CNC(=O)[C@H](N)c3ccccc3)[C@H]2O1.[Na+]", "values": [{"measurement": "half-life", "value": 2.2, "unit": "h"}]}
{"smiles": "Cn1cc([C@H](O)[C@H]2C(=O)N3C(C(=O)[O-])=C(C(C)(C)C)O[C@H]23)nn1.[Na+]", "values": [{"measurement": "half-life", "value": 7, "unit": "h"}]}
{"smiles": "CC(C)(C)C1=C(C(=O)[O-])N2C(=O)[C@H](CNC(=O)COc3ccccc3)[C@H]2O1.[Na+]", "values": [{"measurement": "half-life", "value": 5.7, "unit": "h"}]}
{"smiles": "CC(C)(C)C1=C(C(=O)[O-])N2C(=O)[C@H]([C@H](O)CCc3ccccc3)[C@H]2O1.[Na+]", "values": [{"measurement": "half-life", "value": 21, "unit": "h"}]}
{"smiles": "C[C@@H](O)[C@H]1C(=O)N2C(C(=O)[O-])=C(C(C)(C)C)O[C@@H]12.[Na+]", "values": [{"measurement": "half-life", "value": 6.4, "unit": "h"}]}
{"smiles": "CC(C)(C)C1=C(C(=O)[O-])N2C(=O)[C@H]([C@@H](O)CCc3ccc(O)cc3)[C@H]2O1.[Na+]", "values": [{"measurement": "half-life", "value": 21.2, "unit": "h"}]}
{"smiles": "CC(C)(C)C1=C(C(=O)[O-])N2C(=O)[C@H]([C@H](O)CCc3ccncc3)[C@@H]2O1.[Na+]", "values": [{"measurement": "half-life", "value": 7.1, "unit": "h"}]}
{"smiles": "C[C@H](F)[C@H]1C(=O)N2C(C(=O)[O-])=C(C(C)(C)C)O[C@H]12.[Na+]", "values": [{"measurement": "half-life", "value": 7.2, "unit": "h"}]}
{"smiles": "CC(C)(C)C1=C(C(=O)[O-])N2C(=O)[C@H](CNS(=O)(=O)Cc3ccccc3)[C@H]2O1.[Na+]", "values": [{"measurement": "half-life", "value": 8.9, "unit": "h"}]}
{"smiles": "COC(=O)[C@@H](O)[C@H]1C(=O)N2C(C(=O)[O-])=C(C(C)(C)C)O[C@H]12.[Na+]", "values": [{"measurement": "half-life", "value": 6.2, "unit": "h"}]}
{"smiles": "CC(C)(C)C1=C(C(=O)[O-])N2C(=O)[C@H]([C@H](O)c3ccccc3)[C@H]2O1.[Na+]", "values": [{"measurement": "half-life", "value": 7, "unit": "h"}]}
{"smiles": "CC(C)(C)C1=C(C(=O)[O-])N2C(=O)[C@H]([C@@H](O)CCc3ccc(O)cc3)[C@@H]2O1.[Na+]", "values": [{"measurement": "half-life", "value": 11.8, "unit": "h"}]}
{"smiles": "CC(C)(C)C1=C(C(=O)[O-])N2C(=O)[C@H](CNC(=O)COC(=O)Cc3ccccc3)[C@H]2O1.[Na+]", "values": [{"measurement": "half-life", "value": 9.3, "unit": "h"}]}
{"smiles": "CC(C)(C)C1=C(C(=O)[O-])N2C(=O)[C@H](CNC(=O)Cc3ccccc3)[C@H]2O1.[Na+]", "values": [{"measurement": "half-life", "value": 5.5, "unit": "h"}]}
{"smiles": "COC(=O)[C@H](O)[C@H]1C(=O)N2C(C(=O)[O-])=C(C(C)(C)C)O[C@H]12.[Na+]", "values": [{"measurement": "half-life", "value": 6.7, "unit": "h"}]}
{"smiles": "C[C@@H](O)[C@H]1C(=O)N2C(C(=O)[O-])=C(C(C)(C)C)O[C@H]12.[Na+]", "values": [{"measurement": "half-life", "value": 8.1, "unit": "h"}]}
{"smiles": "CC(C)(C)C1=C(C(=O)[O-])N2C(=O)[C@H](CN)[C@H]2O1.[Na+]", "values": [{"measurement": "half-life", "value": 1.2, "unit": "h"}]}
{"smiles": "CC(C)(C)C1=C(C(=O)[O-])N2C(=O)[C@H]([C@@H](O)c3ccncc3)[C@H]2O1.[Na+]", "values": [{"measurement": "half-life", "value": 6, "unit": "h"}]}
{"smiles": "O=C([O-])[C@H]1/C(=C/CO)O[C@@H]2CC(=O)N21.[K+]", "note": "[CLAVULANATE POTASSIUM]", "values": [{"measurement": "half-life", "value": 60, "unit": "h"}]}
{"smiles": "CC(C)(C)C1=C(C(=O)[O-])N2C(=O)[C@H](CNC(=O)CCNC(=O)Cc3ccccc3)[C@H]2O1.[Na+]", "values": [{"measurement": "half-life", "value": 5.5, "unit": "h"}]}
{"smiles": "CC(C)(C)C1=C(C(=O)[O-])N2C(=O)[C@H]([C@@H](O)c3ccccc3)[C@H]2O1.[Na+]", "values": [{"measurement": "half-life", "value": 8.9, "unit": "h"}]}
{"smiles": "Cn1cc([C@@H](O)[C@H]2C(=O)N3C(C(=O)[O-])=C(C(C)(C)C)O[C@H]23)nn1.[Na+]", "values": [{"measurement": "half-life", "value": 6.8, "unit": "h"}]}
{"smiles": "CC(C)(C)C1=C(C(=O)[O-])N2C(=O)[C@H]([C@@H](O)CCc3ccccc3)[C@H]2O1.[Na+]", "values": [{"measurement": "half-life", "value": 39, "unit": "h"}]}
{"smiles": "C[C@H](O)[C@H]1C(=O)N2C(C(=O)[O-])=C(C(C)(C)C)O[C@H]12.[Na+]", "values": [{"measurement": "half-life", "value": 7.1, "unit": "h"}]}
{"smiles": "CC(C)(C)C1=C(C(=O)[O-])N2C(=O)[C@H](CO)[C@H]2O1.[Na+]", "values": [{"measurement": "half-life", "value": 5, "unit": "h"}]}
{"smiles": "CC(C)(C)C1=C(C(=O)[O-])N2C(=O)[C@H](CO)[C@@H]2O1.[Na+]", "values": [{"measurement": "half-life", "value": 2.4, "unit": "h"}]}
{"smiles": "CC(C)(C)C1=C(C(=O)[O-])N2C(=O)[C@H]([C@H](O)c3ccccc3)[C@@H]2O1.[Na+]", "values": [{"measurement": "half-life", "value": 0.5, "unit": "h"}]}
